Each structure is given as a SMILES string.

In US20230174523A1, “BENZENESULFONAMIDE DERIVATIVES AS TRAP1 MODULATORS AND USES THEREOF” (Amathus Therapeutics, Inc., priority 2020, published 2023) one finds EC50 and Emax data, which are given here for 40 molecules.

The test addresses T1, TRAP1 enzyme (Homo sapiens, UniProt Q12931).
T1 sequence (Q12931 60-704): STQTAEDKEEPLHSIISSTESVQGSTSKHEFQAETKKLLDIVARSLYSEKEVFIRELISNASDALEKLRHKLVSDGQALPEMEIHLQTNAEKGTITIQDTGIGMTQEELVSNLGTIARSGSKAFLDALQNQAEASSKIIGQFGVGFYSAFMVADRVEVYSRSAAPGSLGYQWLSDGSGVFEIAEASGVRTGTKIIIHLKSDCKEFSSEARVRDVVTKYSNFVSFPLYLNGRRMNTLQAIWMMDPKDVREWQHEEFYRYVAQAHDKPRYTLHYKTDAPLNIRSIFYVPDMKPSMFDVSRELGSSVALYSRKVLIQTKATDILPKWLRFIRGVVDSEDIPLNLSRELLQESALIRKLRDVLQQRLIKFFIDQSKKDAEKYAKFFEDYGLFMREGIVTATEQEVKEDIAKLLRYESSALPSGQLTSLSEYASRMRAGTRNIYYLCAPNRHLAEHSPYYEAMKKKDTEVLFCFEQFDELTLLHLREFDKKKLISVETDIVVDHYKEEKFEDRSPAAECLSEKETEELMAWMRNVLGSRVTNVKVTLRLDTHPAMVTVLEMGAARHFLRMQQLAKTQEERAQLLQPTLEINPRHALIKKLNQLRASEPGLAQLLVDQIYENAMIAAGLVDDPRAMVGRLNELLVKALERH
Nature of the test: ADP Glo assay of TRAP1 ATPase activity. It counts as biochemical. Conditions: for EC50: TRAP1 ATPase activation, 150 nM Trap1, 20 μM ATP, geometric mean, read-out: ADP GLO DRC: GeoMean EC50; for Emax: read-out: ADP GLO DRC: Mean Emax. As for the experimental part: Potency of test compounds to modulate the ATPase activity of TRAP1 enzyme was evaluated using ADP Glo assay. The assay is based on quantification of the ADP generated from ATP in the ATPase reaction. The assay is performed in two steps: first, after the ATPase reaction, an equal volume of ADP-Glo™ Reagent is added to terminate the ATPase reaction and deplete the remaining ATP. Second, the Kinase Detection Reagent is added to simultaneously convert ADP to ATP and allow the newly synthesized ATP to be measured using a luciferase/luciferin reaction.
All the assays were carried out in a 384-well Proxiplate. The buffer used was 25 mM Pipes pH-7.5, 40 mM KCl, 0.05 mM MgCl2, 0.025% BSA, 0.316 mM EGTA, 0.003% Empigen, 0.01% Igepal. 150 nM Trap1 enzyme was incubated with various concentrations of the test compound (0.79 μM-100 μM) at 37° C. for 30 mins (except in blank wells). 20 μM ATP was added to each well to start the reaction. The plate was spun for 1 min at 1200 rpm and then incubated at 37° C. for 60 mins. 5 μl of ADP Glo reagent was added to all the wells and spun the plate for 1 min at 1200 rpm and kept it on a shaker at ambient temperature for 60 mins. 10 μl of kinase detection mix was added to all the wells and the plate was read for Luminescence at 495 nm. The amount of ADP released was estimated from ATP/ADP standard curve generated at the same experimental conditions. Emax (Maximal percent activation) and EC50 (concentration for half maximal activation) were estimated by fitting the dose response data to a sigmoidal curve fitting equation using Graphpad Prism software V. 8.
For orientation: ADP-Glo first removes unused ATP, then detects ADP through luciferase.

The EC50 is the concentration at which the effect is half-maximal. One may read the Emax as the maximal effect, on the per cent scale that the assay sets. Take `COc1ccc(NC(=O)c2ccc3nccnc3c2)cc1S(=O)(=O)Nc1c(C)cccc1C` [Compound 1063]: the EC50 lay in the range of 20 to 100 µM and the Emax is > 300%.
On to `COc1ccc(NC(=O)c2cnc3ccoc3c2)cc1S(=O)(=O)Nc1c(C)cccc1C` [Compound 1064], for which the EC50 fell in the range of 20 to 100 µM and the Emax fell in the range of 200 to 300%.
With `COc1ccc(NC(=O)c2cc(F)cc(Br)c2C)cc1S(=O)(=O)Nc1c(C)cccc1C` [Compound 1065], the EC50 is < 10 µM and the Emax was 123 to 159%.
On the same counts, the results for `COCCn1ccc(C(=O)Nc2ccc(OC)c(S(=O)(=O)Nc3c(C)cccc3C)c2)n1` [Compound 1066] are 20 to 100 µM and 160 to 199%.
As for `COc1ccc(NC(=O)c2ccnc(Cl)c2C)cc1S(=O)(=O)Nc1c(C)cccc1C` [Compound 1067], the EC50 was 20 to 100 µM and the Emax lay within 160 to 199%.
`COc1ccc(NC(=O)c2cnn(Cc3ccccc3)c2)cc1S(=O)(=O)Nc1c(C)cccc1C` [Compound 1068]: the EC50 is < 10 µM and the Emax lay within 200 to 300%.
For `COc1ccc(NC(=O)c2ncn(C(C)C)n2)cc1S(=O)(=O)Nc1c(C)cccc1C` [Compound 1069] the same measures were 20 to 100 µM and 160 to 199%.
For `COc1ccc(NC(=O)c2cnc(Cl)s2)cc1S(=O)(=O)Nc1c(C)cccc1C` [Compound 1070] the same measures were < 10 µM and 200 to 300%.
For `COc1ccc(NC(=O)c2ccn(-c3ccccc3)n2)cc1S(=O)(=O)Nc1c(C)cccc1C` [Compound 1071] the same measures were 10 to 20 µM and 200 to 300%.
With `COc1cnc(Cl)c(C(=O)Nc2ccc(OC)c(S(=O)(=O)Nc3c(C)cccc3C)c2)c1` [Compound 1072], the EC50 was in the range of 20 to 100 µM and the Emax lay within 160 to 199%.
For `COc1ccc(NC(=O)c2cnc(OC)c(C(F)(F)F)c2)cc1S(=O)(=O)Nc1c(C)cccc1C` [Compound 1073], the EC50 was < 10 µM and the Emax is 123 to 159%.
For `COc1ccc(NC(=O)c2cn(C)nc2C(F)F)cc1S(=O)(=O)Nc1c(C)cccc1C` [Compound 1074] the same measures were 20 to 100 µM and 160 to 199%.
`COc1ccc(NC(=O)c2cc(N3CCCC3)ccn2)cc1S(=O)(=O)Nc1c(C)cccc1C` [Compound 1077]: the concentration for a half-maximal effect (EC50) was < 10 µM and the Emax was 160 to 199%.
For `COc1ccc(NC(=O)c2cc(-c3ccnn3C)c(Cl)s2)cc1S(=O)(=O)Nc1c(C)cccc1C` [Compound 1079] the same measures were < 10 µM and 160 to 199%.
In the case of `COc1ccc(NC(=O)c2cnc(Cl)cc2Cl)cc1S(=O)(=O)Nc1c(C)cccc1C` [Compound 1082], the EC50 was 20 to 100 µM and the Emax fell in the range of 200 to 300%.
On the same counts, the results for `COc1ccc(NC(=O)c2c(I)cnn2C)cc1S(=O)(=O)Nc1c(C)cccc1C` [Compound 1088] are 20 to 100 µM and 160 to 199%.
For `COc1cc(C#N)cc(C(=O)Nc2ccc(OC)c(S(=O)(=O)Nc3c(C)cccc3C)c2)c1` [Compound 1090] the same measures were < 10 µM and 160 to 199%.
Consider `COc1ccc(NC(=O)c2cc(F)ccc2OC(F)(F)F)cc1S(=O)(=O)Nc1c(C)cccc1C` [Compound 1092], for which the EC50 was < 10 µM and the Emax was in the range of 160 to 199%.
On the same counts, the results for `CCn1nc(C(C)C)cc1C(=O)Nc1ccc(OC)c(S(=O)(=O)Nc2c(C)cccc2C)c1` [Compound 1093] are < 10 µM and 200 to 300%.
On the same counts, the results for `COc1ccc(NC(=O)c2cccc3ccoc23)cc1S(=O)(=O)Nc1c(C)cccc1C` [Compound 1094] are < 10 µM and 200 to 300%.
As for `COc1ccc(NC(=O)c2cccc(C(=O)N(C)C)c2)cc1S(=O)(=O)Nc1c(C)cccc1C` [Compound 1095], the 50% effective concentration (EC50) lay within 20 to 100 µM and the Emax fell in the range of 160 to 199%.
Consider `COc1ccc(NC(=O)c2cccnc2-c2cc(F)cc(F)c2)cc1S(=O)(=O)Nc1c(C)cccc1C` [Compound 1096], for which the EC50 was 10 to 20 µM and the Emax is 123 to 159%.
On the same counts, the results for `COc1ccc(NC(=O)c2ncccc2-c2ccccc2)cc1S(=O)(=O)Nc1c(C)cccc1C` [Compound 1098] are 10 to 20 µM and 200 to 300%.
As for `COc1ccc(NC(=O)c2cccc(C#N)c2Cl)cc1S(=O)(=O)Nc1c(C)cccc1C` [Compound 1100], the EC50 lay in the range of 10 to 20 µM and the Emax was in the range of 200 to 300%.
On the same counts, the results for `COc1ccc(NC(=O)c2cc(C)cs2)cc1S(=O)(=O)Nc1c(C)cccc1C` [Compound 1101] are 10 to 20 µM and 160 to 199%.
On the same counts, the results for `COc1ccc(NC(=O)c2cn(C(C)C)cc2C(F)(F)F)cc1S(=O)(=O)Nc1c(C)cccc1C` [Compound 1103] are < 10 µM and 160 to 199%.
On to `COc1ccc(NC(=O)c2ccnn2C(C)C)cc1S(=O)(=O)Nc1c(C)cccc1C` [Compound 1104], for which the EC50 lay within 10 to 20 µM and the Emax lay within 200 to 300%.
On the same counts, the results for `COc1ccc(NC(=O)c2cnn(-c3cccnc3)c2)cc1S(=O)(=O)Nc1c(C)cccc1C` [Compound 1106] are 10 to 20 µM and 200 to 300%.
As for `COc1ccc(NC(=O)c2cncc(Br)c2C)cc1S(=O)(=O)Nc1c(C)cccc1C` [Compound 1107], the EC50 was in the range of 10 to 20 µM and the Emax lay in the range of 200 to 300%.
For `COc1ccc(NC(=O)c2cn(C)c3ncccc23)cc1S(=O)(=O)Nc1c(C)cccc1C` [Compound 1108] the same measures were 10 to 20 µM and > 300%.
For the molecule `COc1ccc(NC(=O)c2nn(C(C)C)c3ccccc23)cc1S(=O)(=O)Nc1c(C)cccc1C` [Compound 1109], the EC50 is < 10 µM and the Emax fell in the range of 123 to 159%.
For `COc1ccc(NC(=O)c2cnn(-c3ccc(Cl)cc3)c2C)cc1S(=O)(=O)Nc1c(C)cccc1C` [Compound 1110] the same measures were < 10 µM and 160 to 199%.
On the same counts, the results for `COc1ccc(NC(=O)c2c(C(F)(F)F)coc2C)cc1S(=O)(=O)Nc1c(C)cccc1C` [Compound 1111] are 10 to 20 µM and 160 to 199%.
Consider `COc1ccc2oc(C(=O)Nc3ccc(OC)c(S(=O)(=O)Nc4c(C)cccc4C)c3)cc2c1` [Compound 1112], for which the EC50 is < 10 µM and the Emax fell in the range of 160 to 199%.
For `COc1ccc(NC(=O)c2noc3c2CCCC3)cc1S(=O)(=O)Nc1c(C)cccc1C` [Compound 1114] the same measures were 10 to 20 µM and 200 to 300%.
For `COc1ccc(NC(=O)c2sc(Br)nc2C)cc1S(=O)(=O)Nc1c(C)cccc1C` [Compound 1115], the EC50 is 10 to 20 µM and the Emax was in the range of 200 to 300%.
On the same counts, the results for `COc1ccc(NC(=O)c2csc(-c3ccccc3)n2)cc1S(=O)(=O)Nc1c(C)cccc1C` [Compound 1116] are < 10 µM and 160 to 199%.
On the same counts, the results for `CCOc1cc(OCC)cc(C(=O)Nc2ccc(OC)c(S(=O)(=O)Nc3c(C)cccc3C)c2)c1` [Compound 1117] are < 10 µM and 123 to 159%.
In the case of `COc1ccc(NC(=O)c2ccc3nc(C)ccc3c2)cc1S(=O)(=O)Nc1c(C)cccc1C` [Compound 1118], the EC50 is 10 to 20 µM and the Emax was 200 to 300%.
For `COc1ccc(NC(=O)c2ccc(S(=O)(=O)N(C)C)cc2)cc1S(=O)(=O)Nc1c(C)cccc1C` [Compound 1120] the same measures were 20 to 100 µM and 160 to 199%.
